Experimental data reported in patent US7910586B2, “Compositions and methods for prevention and treatment of amyloid-β peptide-related disorders” (The Rockefeller University, priority 2002, dated 2011).
Counter-ions that a name gives are not always drawn.

Experiments:
[1] = test system: wild-type 3T3 mouse fibroblasts; experiment: Aβ production in wild-type 3T3 mouse fibroblasts; format: cell-based; settings: 5 μM or 10 μM STI-571; 0.5 μM or 1.0 μM Compound 1; similar degree as in Abl−/− and N2a cells
Protocol: (§1) Abl knockout (Abl−/−) 3T3 mouse fibroblasts and wild-type 3T3 mouse fibroblasts (see Liu et al., 1996, Nature 384(6606):273-6) were grown separately and to confluence in 100 mm Corning tissue culture plates. These fibroblast cell lines are permanent cell lines. […] Several other plates were exposed to either 0.5 μM or 1.0 μM Compound 1 (dissolved in DMSO) or to DMSO without Compound 1.
(§2) For the above-described cell cultures, each of the drugs or control solvents was added to a standard culture medium (DMEM+10% FBS+pen/strep) at a dilution of 1:1000 and cultures were then incubated at 37° C. for 2 hours. The contacting of cell cultures and incubation with inhibitors and solvent, as described above, constituted “pretreatment” of cells.
(§3) The first culture medium was then removed and the cell cultures were rinsed with a second culture medium lacking methionine, cysteine and glutamate. The cell cultures were incubated with this culture medium for 30 minutes (to stimulate subsequent uptake of amino acids). Then the second culture medium was exchanged for fresh first culture medium containing ^35S-labeled methionine and cysteine (NEN Express label 50 μl/ml) and unlabeled glutamine (final concentration 2 mM) and with inhibitors as described above, and incubated for 4 hours at 37° C. […]

[2] = test system: γ-secretase; experiment: Isolated γ-secretase activity: Aβ release (ELISA) from membranes of N2a cells expressing recombinant C99; format: biochemical, mouse; settings: membranes from N2a cells expressing C99, with ATP; FIG. 4
Protocol: For the assay of isolated γ-secretase activity, membranes were isolated from N2a cells expressing a recombinant γ-secretase substrate, C99, according to the methods of Zhang et al. (2001, Biochemistry 40: 5049-5055). […] Also, to determine whether ATP was primarily responsible for stimulating γ-secretase activity, the previous energy regenerating system was substituted with one designed to sustain concentrations of ATP alone but not GTP. Aβ release from isolated membranes was determined by ELISA (Biosource International, Camarillo, Calif.).

[3] = test system: mΔe-Notch; experiment: Notch cleavage in N2a cells transfected with mΔe-Notch; format: cell-based, mouse; settings: at levels that strongly inhibit Aβ-formation; FIGS. 17 and 18
From the text: N2a cells were transfected with a constitutively active truncated form of Notch, mouse “deleted-extracellular” Notch (mΔe-Notch), which supplies a direct substrate for γ-secretase (De Strooper et al., 1999, Nature 398: 518-522).

[4] = test system: N2a cells transfected with the human Swedish APP mutation; experiment: Aβ generation in N2a cells transfected with human Swedish APP and normal or ΔE9 presenilin 1 (immunoprecipitation, autoradiography, Western blot); format: cell-based, mouse; settings: for Aβ after one hour of treatment: 35S labeled N2a cells expressing human APP-Swedish
Protocol: N2a cells transfected with the human Swedish APP mutation, and with either normal human presenilin 1 or ΔE9 mutant presenilin 1 (PS1), were used for assays of compound effect on Aβ generation.
Media was added with compound concentration of 0, 10^−9, 10^−8, 10^−7 and 10^−6 M; cells were incubated overnight at 37° C. The next day, cells were incubated with ^35S-methionine and ^35S-cysteine for four hours in the presence of the compound as above.
Media and cells were separately harvested and subjected to immunoprecipitation with antibody 4G8 (Senetek, Napa, Calif.), which recognizes an epitope corresponding to residues 17-28 of Aβ. Antibody 4G8 immunoprecipitates Aβ from media, and Aβ plus full-length APP from cells. After removal of antibody 4G8 and bound Aβ from media, the supernatant was reacted with 22C11 (Chemicon International), an antibody that immunoprecipitates sAPPβ and sAPPα. Immunoprecipitates were subjected to PAGE and resolved by autoradiography according to standard methods. APP metabolites were compared by densitometry according to standard methods.
In other experiments, immunoprecipitation followed by Western blot analysis was carried out on unlabeled (no radioactive label) N2a cells, using standard methods and using 6E10 (Senetek, Napa, Calif.) or 22C11 antibodies for detection.
These immunoprecipitation experiments were repeated using a minimal treatment time, 1 hour instead of overnight.

[5] = test system: rat embryonic cortical neurons; experiment: Aβ production in rat primary embryonic cortical neuronal cultures; format: cell-based
[6] = test system: Abl knockout (Abl−/−) 3T3 mouse fibroblasts; experiment: Aβ production in Abl knockout (Abl−/−) 3T3 mouse fibroblasts; format: cell-based; settings: 5 μM or 10 μM STI-571; 0.5 μM or 1.0 μM Compound 1; similar degree as in wild-type and N2a cells
Protocol: as §1, §2, §3

[7] = test system: rat embryonic cortical neurons; experiment: Aβ production in rat primary embryonic cortical neuronal cultures; format: cell-based; settings: for production of Aβ peptides: normal rat primary neuronal cell cultures; for concentration at which significant reductions in Aβ were observed: primary cortical neuronal cultures, dose response, FIGS. 13 and 14
From the text: Cultures of rat embryonic cortical neurons were established from day 18 pregnant SD rats using standard techniques (Gasparini et al., 2001, J. Neurosci. 21(8):2561-2570).
The next day, cells were labeled with ^35S-methionine and cysteine for four hours in the presence of compounds as above. Media and cells were then harvested and subjected to immunoprecipitation with antibody 4G8, to detect Aβ and APP. The media was serially immunoprecipitated first with antibody 4G8 and then antibody 22C11, for detection of secreted Aβ, sAPPP and sAPPα. Immunoprecipitates were subjected to PAGE and resolved by autoradiography; APP metabolites were compared by densitometry.

[8] = test system: brain Aβ40, Aβ42 and C99; experiment: Brain Aβ and C99 in wild-type guinea pigs after intrathecal osmotic minipump treatment; format: in vivo, guinea pig; settings: 2.8 mg/kg, 7 days
Protocol: After 7 days of treatment, animals were sacrificed, and their brains homogenized in 25 mM Tris 7.5, 50 mM NaCl, 1 mM DTT, 5 mM EDTA, 1 mM EGTA, and 1× protease inhibitor cocktail (Complete™, Boehringer Biochemicals). Aliquots of brain homogenate were assayed for Aβ peptide by using a sandwich ELISA according the manufacturer's recommendations (Biosource International, Camarillo, Calif.) and for C99 by immunoprecipitation and Western blot analysis using standard methods.

[9] = test system: N2a cells expressing Swedish variant of human APP and the PS1 mutation; experiment: Mass spectrometry (Ciphergen ProteinChip, SELDI-TOF) of Aβ40 and Aβ42 in media from N2a cells; format: cell-based, mouse; settings: FIG. 5
Protocol: Mass spectrometry was carried out on media from N2a cells to detect Aβ40 and Aβ42 peptides using the CiphergenProteinChip System (Ciphergen Biosystems Inc., Fremont, Calif.), which is based on Seldi and time-of-flight mass spectrometry, using standard protocols as set out by the manufacturer. The experimental procedures were the same as those disclosed above for immunoprecipitation/Western blotting, without metabolic labeling. […] Aliquots of detergent treated media were contacted to a metal chip that was previously contacted with an antibody, such as 6E10. The antibody binds human APP metabolites, including Aβ, in the applied sample. Detection of bound antigen followed a laser pulse that dissociated antigen from antibody.
Aβ peptides were resolved graphically as peaks of various heights, situated on an x-axis denoting molecular mass. Thus, Aβ40 and Aβ42 were resolved separately at approximately 4333 and 4519 daltons, respectively. The relative heights or areas under the peaks in a given spectrum denoted the relative concentrations of the detected species. Peaks corresponding to the same species, as conveyed by molecular mass, were compared among different spectra, reflecting different samples, to measure relative quantities of Aβ among a set of samples.

| Compound | Aβ production [1] | Aβ generation in isolated membranes [2] | cleavage of mΔe-Notch to form Notch intracellular domain (NICD) [3] | Aβ after one hour of treatment ([4]; FIGS. 6 and 7) | IC50 ([4]; N2a cells expressing APP and either normal human presenilin 1 or ΔE9 mutant presenilin 1, read-out: IC50 (inhibited total levels of Aβ by 50%)) [nM] | cytotoxicity [5] | Aβ production [6] | production of Aβ peptides [7] | concentration at which significant reductions in Aβ were observed [7] [µM] | secretion of soluble APP-α ([7]; primary neuronal cells cultured from rat brain, FIG. 9) | levels of Aβ in cells ([7]; rat cortical neurons) | levels of Aβ in media ([7]; rat cortical neurons, FIG. 8A, FIG. 10) | total cellular APP ([7]; rat cortical neurons, FIG. 9) | total sAPP ([7]; rat cortical neurons, FIG. 9) | appearance of animals [8] | full-length βAPP levels ([8]; FIG. 16C) | Aβ40 level [9] | Aβ42 level [9] | APP levels ([4]; intact N2a cells expressing Swedish variant of human APP, FIGS. 6 and 7) |
| --- | --- | --- | --- | --- | --- | --- | --- | --- | --- | --- | --- | --- | --- | --- | --- | --- | --- | --- | --- |
| CSc1cccc(Nc2ncc3cc(-c4c(Cl)cccc4Cl)c(=O)n(C)c3n2)c1 [Compound 1] | inhibited | dose-dependent decrease | unaffected | dose-dependent decrease | < 1000 | not cytotoxic | inhibited | inhibit | 0.5 | consistent secretion | reduced | reduced | not reduced significantly | not reduced significantly | healthy and active | do not change | dramatically reduced | dramatically reduced | – |
| Cc1ccc(NC(=O)c2ccc(CN3CCN(C)CC3)cc2)cc1Nc1nccc(-c2cccnc2)n1 [STI-571, imatinib mesylate, reference compound] | inhibited | – | – | dose-dependent decrease | – | – | inhibited | inhibit | 5 | – | – | – | – | – | – | – | – | – | do not change |
